Target: galectin-3 carbohydrate recognition domain (Gal3C) (Homo sapiens, UniProt P17931)
Assay: X-ray crystal structure at […] Å
Format: binding

Sequence of galectin-3 carbohydrate recognition domain (Gal3C) (P17931 113-250): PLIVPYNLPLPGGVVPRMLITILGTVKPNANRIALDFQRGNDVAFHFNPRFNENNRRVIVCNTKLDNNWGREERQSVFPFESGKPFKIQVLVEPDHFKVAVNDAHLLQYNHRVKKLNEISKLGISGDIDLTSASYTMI

OCC(O)CO [glycerol]
Kd: > 100 mM

From PMC3255464 (2011)
